| melting point [°C] | Compound |
| --- | --- |
| 260 to 266 | CN1CC2Cc3cccnc3C(C2)C1.Cl.Cl (centres unmarked) |
| 320 to 322 | Cn1nc2c3c(cccc3c1=O)C1CNCC2C1 (centres unmarked) |

Source: patent US7456177B2, “Heteroaryl fused azapolycyclic compounds” (Pfizer Inc., priority 2003, dated 2008)
